Test results from US4241087A, “Dysmenorrhea treatment” (William H. Rorer, Inc., priority 1979, dated 1980).

Assays:
Type in all cases: cell-based
[1] = system: Ach induced contractions in the isolated gravid rat uterus; assay: Ach induced contractions, isolated gravid rat uterus (isometric, non-cumulative dose response); settings: for inhibition at 160 µg/mL / inhibition at 40 µg/mL / inhibition at 80 µg/mL: Rattus norvegicus; for inhibition at 40 µg/mL: compound 40 μg/ml; for inhibition at 80 µg/mL: compound 80 μg/ml
Procedure: (§1) Female virgin Wistar rats at an average weight of 160 g to 220 g are used for the experiment. Prior to the experiment, the animals are housed five per group and maintained according to standard animal husbandry procedures. The animals are treated with DES (100 mg/kg/body weight) 24 hours prior to the experiment.
(§2) The stage of the estrus cycle is determined by vaginal smears on the morning of the experiment. Rats in estrus are killed by a blow on the head and the abdomen is opened. The two horns of the uterus are dissected out and transferred to a dish containing Bathing's solution (composition in g: NaCL, 8.046; KCl, 0.20; CaCl2.2H2 O, 0.132; MgCl2.6H2 O, 0.106; NaHCO3, 1.0; NaH2 PO4, 0.065; Dextrose, 1.0 distilled to 1 liter with distilled water). The two horns are separated and freed from mesentery in Bathing's solution. A thread is attached at each end of each horn and the uterine segment is mounted in a tissue bath (50 ml), maintained at 37° C. by a circulatory bath and aerated with 95% O2 5% CO2. One thread is attached to a fixed pin and the other to a transducer. Contractions are recorded isometrically on a Beckman dynograph in conjunction with a Grass force-displacement transducer (FTO3C) of which has been calibrated in g. tension, or isotonically in conjunction with a Harvard smooth muscle transducer (386). The tissue is subjected to a baseline tension of 0.5 g. The preparation is allowed to equilibrate for 30 minutes prior to the experiment.
(§3) Various spasmogens (such as: acetylcholine chloride, PGF2a, PGE2, oxytocin, BaCl2 or ergonivine maleate) may be used to induce contractions in the isolated uterine strip. See "In Vitro Methodology for Evaluation of Compound Effect on Isolated Guinea Pig Ileum" for description of obtaining dose response curve. Afer the control dose-response curve is obtained, the tissue is allowed to relax for five minutes before the addition of the spasmolytic drug (inhibitory drug). The test drug is in contact with the tissue for two minutes before the dose-response curve is repeated. The inhibitory effect of the test drug is determined as follows: [formula]
(§4) The % maximum response is calculated for each dose of the dose-response curve and the control and drug curves are plotted.
(§5) The dose-response behavior on the isolated gravid rat uterus of Acetylcholine chloride, Oxytocin and PGF2a was compared in the presence and absence of varying doses of 1-(2',6'-dimethylphenyl)-3-methylamidinourea hydrochloride using the non-cumulative dose response method.

[2] = system: Oxytocin induced contractions in the isolated gravid rat uterus; assay: Oxytocin induced contractions, isolated gravid rat uterus (isometric, non-cumulative dose response); settings: for inhibition at 40 µg/mL / inhibition at 80 µg/mL / inhibition at 160 µg/mL: Rattus norvegicus; for inhibition at 40 µg/mL: compound 40 μg/ml; for inhibition at 80 µg/mL: compound 80 μg/ml; for inhibition at 160 µg/mL: compound 160 μg/ml
Procedure: as §1, §2, §3, §4, §5

[3] = system: PGF2α induced contractions in the isolated gravid rat uterus; assay: PGF2α induced contractions, isolated gravid rat uterus (isometric, non-cumulative dose response); settings: for inhibition at 40 µg/mL / inhibition at 80 µg/mL / inhibition at 160 µg/mL: Rattus norvegicus; for inhibition at 40 µg/mL: compound 40 μg/ml; for inhibition at 80 µg/mL: compound 80 μg/ml; for inhibition at 160 µg/mL: compound 160 μg/ml
Procedure: as §1, §2, §3, §4, §5

[4] = increasing doses of compound, in vitro gravid rat uterus

CNC(=N)NC(=O)Nc1c(C)cccc1C.Cl [1-(2',6'-dimethylphenyl)-3-methylamidinourea hydrochloride]
inhibition at 160 µg/mL ([1]; ACH-2, compound 160 μg/ml, Ach 2,560 μg/ml): 67.4% | inhibition at 40 µg/mL ([1]; Ach 20 μg/ml): 100% | inhibition at 40 µg/mL ([1]; Ach 40 μg/ml): 83% | inhibition at 40 µg/mL ([1]; Ach 80 μg/ml): 79.7% | inhibition at 40 µg/mL ([1]; Ach 160 μg/ml): 46.8% | inhibition at 40 µg/mL ([1]; Ach 320 μg/ml): 2.8% | inhibition at 40 µg/mL ([1]; Ach 640 μg/ml): < 2.8% | inhibition at 80 µg/mL ([1]; Ach 20 μg/ml): 100% | inhibition at 80 µg/mL ([1]; Ach 40 μg/ml): 100% | inhibition at 80 µg/mL ([1]; Ach 80 μg/ml): 100% | inhibition at 80 µg/mL ([1]; Ach 160 μg/ml): 95.8% | inhibition at 80 µg/mL ([1]; Ach 320 μg/ml): 26.8% | inhibition at 80 µg/mL ([1]; Ach 640 μg/ml): < 26.8% | inhibition at 160 µg/mL ([1]; compound 160 μg/ml, Ach 20 μg/ml): 100% | inhibition at 160 µg/mL ([1]; compound 160 μg/ml, Ach 40 μg/ml): 100% | inhibition at 160 µg/mL ([1]; compound 160 μg/ml, Ach 80 μg/ml): 100% | inhibition at 160 µg/mL ([1]; compound 160 μg/ml, Ach 160 μg/ml): 100% | inhibition at 160 µg/mL ([1]; compound 160 μg/ml, Ach 320 μg/ml): 93.3% | inhibition at 160 µg/mL ([1]; compound 160 μg/ml, Ach 640 μg/ml): 93.6% | inhibition at 160 µg/mL ([1]; compound 160 μg/ml, Ach 1,280 μg/ml): 84.6% | inhibition at 160 µg/mL ([1]; compound 160 μg/ml, Ach 5,120 μg/ml): 61.2% | inhibition at 160 µg/mL ([1]; compound 160 μg/ml, Ach 10,240 μg/ml): 62.7% | inhibition of Acetylcholine chloride induced contractions (in words) [1, 4]: dose dependent | inhibition at 40 µg/mL ([2]; Oxytocin 1 × 10^-4 U/ml): < 22.1% | inhibition at 40 µg/mL ([2]; Oxytocin 1 × 10^-5 U/ml): 100% | inhibition at 40 µg/mL ([2]; Oxytocin 3 × 10^-5 U/ml): 22.1% | inhibition at 80 µg/mL ([2]; Oxytocin 1 × 10^-4 U/ml): 14.4% | inhibition at 80 µg/mL ([2]; Oxytocin 1 × 10^-5 U/ml): 100% | inhibition at 80 µg/mL ([2]; Oxytocin 3 × 10^-4 U/ml): < 14.4% | inhibition at 80 µg/mL ([2]; Oxytocin 3 × 10^-5 U/ml): 48.7% | inhibition at 160 µg/mL ([2]; Oxytocin 1 × 10^-3 U/ml): 47.6% | inhibition at 160 µg/mL ([2]; Oxytocin 1 × 10^-4 U/ml): 100% | inhibition at 160 µg/mL ([2]; Oxytocin 1 × 10^-5 U/ml): 100% | inhibition at 160 µg/mL ([2]; Oxytocin 3 × 10^-3 U/ml): 32.5% | inhibition at 160 µg/mL ([2]; Oxytocin 3 × 10^-4 U/ml): 63.2% | inhibition at 160 µg/mL ([2]; Oxytocin 3 × 10^-5 U/ml): 100% | inhibition of Oxytocin induced contractions (in words) [2, 4]: dose dependent | inhibition at 40 µg/mL ([3]; PGF2α 1 × 10^-7 M): 39.5% | inhibition at 40 µg/mL ([3]; PGF2α 1 × 10^-8 M): 99% | inhibition at 40 µg/mL ([3]; PGF2α 3 × 10^-7 M): < 39.5% | inhibition at 40 µg/mL ([3]; PGF2α 3 × 10^-8 M): 95.1% | inhibition at 80 µg/mL ([3]; PGF2α 1 × 10^-6 M): < 48.9% | inhibition at 80 µg/mL ([3]; PGF2α 1 × 10^-7 M): 64% | inhibition at 80 µg/mL ([3]; PGF2α 1 × 10^-8 M): 98.2% | inhibition at 80 µg/mL ([3]; PGF2α 3 × 10^-7 M): 48.9% | inhibition at 80 µg/mL ([3]; PGF2α 3 × 10^-8 M): 91.3% | inhibition at 160 µg/mL ([3]; PGF2α 1 × 10^-6 M): 96.1% | inhibition at 160 µg/mL ([3]; PGF2α 1 × 10^-7 M): 98.5% | inhibition at 160 µg/mL ([3]; PGF2α 1 × 10^-8 M): 100% | inhibition at 160 µg/mL ([3]; PGF2α 3 × 10^-6 M): 86.8% | inhibition at 160 µg/mL ([3]; PGF2α 3 × 10^-7 M): 96.1% | inhibition at 160 µg/mL ([3]; PGF2α 3 × 10^-8 M): 100% | inhibition of PGF2a induced contractions (in words) [3, 4]: dose dependent
